Assay results reported in ChEMBL document CHEMBL1201862, “PubChem BioAssay data set” (2004).
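Assay format: 96-well plates, 48-hour exposure. Abbreviation: GI50, concentration required for 50% inhibition of growth.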 Active and inactive are the calls of the source. Rule as the data show it: active = GI50 up to about 1.1 µM and inactive = higher.

Legend:
Assay in all cases: NCI tumour cell line growth inhibition, 48 h
PC-3 = tested on: PC-3
TK-10 = tested on: TK-10
HT-29 = tested on: HT-29
HCT-116 = tested on: HCT-116
SNB-75 = tested on: SNB-75
SK-MEL-28 = tested on: SK-MEL-28
NCI-H23 = tested on: NCI-H23
MCF7 = tested on: MCF7
COLO 205 = tested on: COLO 205
SNB-19 = tested on: SNB-19
OVCAR-5 = tested on: OVCAR-5
M14 = tested on: M14
SF-268 = tested on: SF-268
RPMI-8226 = tested on: RPMI-8226
SR = tested on: SR
NCI-H522 = tested on: NCI-H522
NCI-H226 = tested on: NCI-H226
UACC-62 = tested on: UACC-62
HOP-62 = tested on: HOP-62
SK-OV-3 = tested on: SK-OV-3

Measured: GI50

COCN1C(N)=C(C(=O)OC(C)(C)C)C2=CC(=O)C=CC21C (stereo not given)
inactive: PC-3 16.9 µM | TK-10 13.4 µM | HT-29 6.64 µM | HCT-116 7.83 µM | SNB-75 19.1 µM | SK-MEL-28 20.3 µM | NCI-H23 15.4 µM | MCF7 11 µM | COLO 205 5.01 µM | SNB-19 > 100 µM | OVCAR-5 18.1 µM | M14 15.8 µM | SF-268 15.8 µM | RPMI-8226 20.4 µM | SR 12.5 µM | NCI-H522 3.4 µM | NCI-H226 16.8 µM | UACC-62 15.6 µM | HOP-62 28.4 µM | SK-OV-3 34.6 µM

Fc1ccc2c(c1)nc1n2C(c2c(Cl)cccc2Cl)SC1 (stereo not given)
inactive: PC-3 14.7 µM | TK-10 17.5 µM | HT-29 16 µM | HCT-116 6.41 µM | SNB-75 13 µM | SK-MEL-28 10.8 µM | NCI-H23 13.1 µM | MCF7 15.1 µM | COLO 205 16.7 µM | SNB-19 14.1 µM | OVCAR-5 15.5 µM | M14 16.4 µM | SF-268 15.8 µM | RPMI-8226 13.4 µM | SR 3.94 µM | NCI-H522 14.7 µM | NCI-H226 17.3 µM | UACC-62 11.8 µM | HOP-62 14.4 µM | SK-OV-3 14.8 µM

O=[N+]([O-])c1cccc(/C=N/NC2=CS(=O)(=O)C=C2)c1
inactive: PC-3 > 100 µM | TK-10 > 100 µM | HT-29 > 100 µM | HCT-116 > 100 µM | SNB-75 91 µM | SK-MEL-28 > 100 µM | NCI-H23 > 100 µM | MCF7 > 100 µM | COLO 205 > 100 µM | SNB-19 > 100 µM | OVCAR-5 > 100 µM | M14 > 100 µM | SF-268 > 100 µM | RPMI-8226 > 100 µM | SR > 100 µM | NCI-H522 > 100 µM | NCI-H226 > 100 µM | UACC-62 > 100 µM | HOP-62 > 100 µM | SK-OV-3 > 100 µM

O=C1OC(c2ccccc2)=N/C1=C\c1ccc(Cl)cc1
inactive: PC-3 > 100 µM | TK-10 > 100 µM | HT-29 > 100 µM | HCT-116 > 100 µM | SNB-75 > 100 µM | SK-MEL-28 > 100 µM | NCI-H23 > 100 µM | MCF7 > 100 µM | COLO 205 > 100 µM | SNB-19 > 100 µM | OVCAR-5 > 100 µM | M14 > 100 µM | SF-268 > 100 µM | RPMI-8226 > 100 µM | SR > 100 µM | NCI-H522 50.6 µM | NCI-H226 > 100 µM | UACC-62 > 100 µM | HOP-62 > 100 µM | SK-OV-3 > 100 µM

O=C1CSC(c2ccccc2O)N1c1nc2cc3sc(N4C(=O)CSC4c4ccccc4O)nc3cc2s1 (stereo not given)
inactive: PC-3 45.7 µM | TK-10 > 100 µM | HT-29 20 µM | HCT-116 20.7 µM | SNB-75 99.8 µM | SK-MEL-28 > 79.1 µM | NCI-H23 9.57 µM | MCF7 11.5 µM | COLO 205 3.61 µM | SNB-19 42 µM | OVCAR-5 > 100 µM | M14 > 69.5 µM | SF-268 > 86.9 µM | RPMI-8226 32.1 µM | SR 7.71 µM | NCI-H522 7.06 µM | NCI-H226 21 µM | UACC-62 > 87.5 µM | HOP-62 > 100 µM | SK-OV-3 > 100 µM

Cc1ccccc1NC(=O)O/N=C(\Cl)C(C)C
inactive: PC-3 17.1 µM | TK-10 3.94 µM | HT-29 5.56 µM | HCT-116 2.18 µM | SNB-75 17.1 µM | SK-MEL-28 2.4 µM | NCI-H23 16.7 µM | MCF7 7.98 µM | COLO 205 1.75 µM | SNB-19 20.8 µM | OVCAR-5 20.9 µM | M14 3.22 µM | SF-268 19.3 µM | RPMI-8226 1.86 µM | SR 2.85 µM | NCI-H522 1.68 µM | NCI-H226 16 µM | UACC-62 14.9 µM | HOP-62 17.3 µM | SK-OV-3 18.7 µM

COc1cc2c(c(OC)c1OC)C(=O)[C@@H]1[C@H]2N1C(=O)NCCCl
inactive: PC-3 58.2 µM | TK-10 > 100 µM | HT-29 36 µM | HCT-116 41.7 µM | SNB-75 40.9 µM | SK-MEL-28 > 100 µM | NCI-H23 43.4 µM | MCF7 27.6 µM | COLO 205 27 µM | SNB-19 > 100 µM | OVCAR-5 > 100 µM | M14 50.4 µM | SF-268 76.9 µM | RPMI-8226 70 µM | SR 46.2 µM | NCI-H522 49.2 µM | NCI-H226 64 µM | UACC-62 61.4 µM | HOP-62 > 100 µM | SK-OV-3 > 100 µM
